Molecules are shown by their SMILES. Several values for one entry are separate records, joined by “and”; a condition that tells them apart may be missing. Equal values may be shown once.

We go through 18 molecules from patent US20260102499A1, “COMPOSITIONS WITH REDUCED N[…]” (INVENTIA HEALTHCARE LIMITED, priority 2022, published 2026).

Experiment in one data set: not given
Particulars: per day, as published by Health Canada; cited from earlier work.
With `CN1CCN(N=O)CC1` [1-methyl-4-nitrosopiperazine (MNP), 1-methyl-4-nitrosopiperazine], the “Acceptable Intake (AI) Levels” value is recorded as 96.0 ng/day. `O=NN1CCn2c(nnc2C(F)(F)F)C1` [7-Nitroso-3-(trifluoromethyl)-5,6,7,8-tetrahydro[1,2,4]triazolo-[4,3-a]pyrazine]: the “Acceptable Intake (AI) Levels” value is 37.0 ng/day. On to `CN(CCc1ccccc1)N=O` [N-methyl-N-nitroso-phenethylamine], for which the “Acceptable Intake (AI) Levels” value is reported as 8.0 ng/day.

Take `O=NN1CC=CCC1` [N-nitroso-1,2,3,6-tetrahydropyridine]: the “Acceptable Intake (AI) Levels” value was 37.0 ng/day. Regarding `CN(CCCC(=O)O)N=O` [N-nitroso-4-(methylamino)butyric acid], the “Acceptable Intake (AI) Levels” value is 96.0 ng/day.

In the case of `CCCCN(CCCC)N=O` [N-nitroso-dibutylamine (NDBA), N-nitroso-dibutylamine], the “Acceptable Intake (AI) Levels” value is 26.5 ng/day. As to `CCN(CC)N=O` [N-nitroso-diethylamine (NDEA), N-nitroso-diethylamine], the “Acceptable Intake (AI) Levels” value was 26.5 ng/day. Turning to `CC(C)N(N=O)C(C)C` [N-nitroso-diisopropylamine (NDIPA), N-nitroso-diisopropylamine], the “Acceptable Intake (AI) Levels” value is reported as 26.5 ng/day. Consider `CN(C)N=O` [N-nitroso-dimethylamine (NDMA), N-nitroso-dimethylamine], for which the “Acceptable Intake (AI) Levels” value is listed as 96.0 ng/day. Turning to `CCCN(CCC)N=O` [N-nitroso-dipropylamine (NDPA), N-nitroso-dipropylamine], the “Acceptable Intake (AI) Levels” value is given as 26.5 ng/day. Consider `CN(CC[C@H](Oc1cccc2ccccc12)c1cccs1)N=O` [N-nitroso-duloxetine (NDLX), N-nitroso-duloxetine], for which the “Acceptable Intake (AI) Levels” value is listed as 100.0 ng/day. Regarding `CCN(N=O)C(C)C` [N-nitroso-ethylisopropylamine (NEIPA), N-nitroso-ethylisopropylamine], the “Acceptable Intake (AI) Levels” value is 26.5 ng/day. As for `COC(=O)C(c1ccccc1)C1CCCCN1N=O` (stereo not shown) [N-nitroso-methylphenidate], the “Acceptable Intake (AI) Levels” value is 1300.0 ng/day.

As for `CN(CCC=C1c2ccccc2CCc2ccccc21)N=O` [N-nitroso-nortriptyline (NNORT), N-nitroso-nortriptyline], the “Acceptable Intake (AI) Levels” value was 8.0 ng/day. Consider `O=NN1CCCCC1` [N-nitroso-piperidine], for which the “Acceptable Intake (AI) Levels” value was 1300.0 ng/day. Regarding `C#CCN(N=O)[C@@H]1CCc2ccccc21` [N-nitroso-rasagiline], the “Acceptable Intake (AI) Levels” value is reported as 18.0 ng/day. `O=NN1CC2CC(C1)c1cc3nccnc3cc12` [N-nitroso-varenicline (NNV), N-nitroso-varenicline]: the “Acceptable Intake (AI) Levels” value was 37 ng/day and 37.0 ng/day. For the molecule `O=NN1CCOCC1` [N-nitrosomorpholine (NMOR), N-nitrosomorpholine], the “Acceptable Intake (AI) Levels” value is given as 127.0 ng/day.

Another data set can be described thus: Acceptable intake / acceptable level of nitrosamine impurities (Health Canada). The following applies: based on a maximum daily dose of 2 mg for varenicline. The text has this: International regulators such as United States Food and Drug Administration (USFDA), European Medicine Agency (EMA), and Health Canada have published recommendations with respect to ‘acceptable intake’ of nitrosamine impurities. ‘Acceptable intake’ (per day) of nitrosamine impurities varies with the impurity structure, molecular weight, and its toxicity potential. Table 1 illustrates the per day ‘acceptable intake’ of some nitrosamine impurities, as published by Health Canada.
‘Acceptable intake’ of a nitrosamine impurity, when applied to the maximum daily dose of a drug, provides ‘acceptable levels’ of the said nitrosamine impurity in pharmaceutical compositions containing the said drug. ‘Acceptable levels’ of a nitrosamine impurity are expressed in parts per million (ppm) or parts per billion (ppb), of the drug (by weight). For example, for varenicline (which contains amine), the ‘acceptable intake’ of the N-nitroso-varenicline (NNV) (nitrosamine impurity of the NDSRI type) is 37 ng/day, and the ‘acceptable level’ of NNV is 18.5 ppm based on a maximum daily dose of 2 mg for varenicline.
For `O=NN1CC2CC(C1)c1cc3nccnc3cc12` [N-nitroso-varenicline (NNV), N-nitroso-varenicline], the “acceptable level of NNV” value is 18.5 ppm.
